Measurements reported in patent US7521590B2, “Phospholipase C β1 (PLCβ1) knockout mice as a model system for testing schizophrenia drugs” (Korea Institute of Science and Technology, priority 2006, dated 2009).

How the values were obtained:
PLCβ1−/− mice = assay: Prepulse inhibition (PPI) of acoustic startle response in PLCβ1−/− mice; type: in vivo, mouse; details: 0.2 mg/kg i.p. 45 minutes before the test, prepulse 74, 82, 90 dB, p<0.05 vs vehicle
Procedure: (§1) PPI tests were carried out with 26 responder mice 13˜15 weeks old by using a single acoustic startle chamber (Coulbourn Instruments, USA), one mouse at a time. The startle reflex was triggered by a pulse stimulus in the form of a 40 msec, 120 dB burst of white noise (SS). Inhibition of the SS-elicited startle response was achieved using a 20 msec-prepulse stimulus of various intensities (74, 82, and 90 dB white noise) that preceded SS by 100 msec.
(§2) The test was composed of a series of 7 blocks, each of which was a “semi-random” mixture of 8 different trial types (no stimulus, SS only, three PP only, three PP plus SS), separated by 10 to 15-second intertrial intervals. The percent prepulse inhibition (%PPI) was calculated as [1−(response to PP-SS coupling/response to SS only)]×100.
(§3) Haloperidol (0.2 mg/kg body weight) was intraperitonealy (i.p.) administered 45 minutes before the test, using 0.5% dimethylsulfoxide (DMSO) in saline (0.9% NaCl) as the vehicle. Haloperidol (Tocris Cookson, UK) stock solution was prepared in DMSO and stored at […] for less than a month.

wild-type mice = assay: Prepulse inhibition (PPI) of acoustic startle response in wild-type mice; type: in vivo, mouse; details: 0.2 mg/kg i.p. 45 minutes before the test, vs vehicle
Procedure: as §1, §2, §3

## O=C(CCCN1CCC(O)(c2ccc(Cl)cc2)CC1)c1ccc(F)cc1 [haloperidol, Haloperidol]
PLCβ1−/− mice
  effect on the PPI deficit (%PPI): completely reversed
wild-type mice
  effect on the PPI (%PPI): not effective
